# Reference: patent publication US20060019922A1, “Selective killing of cancerous cells” (The University of North Carolina, priority 2004, published 2006)
# Tests used:
# Saos-2/p53+ cells = assay: Colony-formation assay with GCV in Saos-2/p53-positive cells; format: cell-based, human; details: Saos 2/p53-positive cells co-transfected with pRL-2MDR-TKp-TK; especially at higher GCV concentrations
# Description: (§1) FIGS. 9A and 9B depict regulation of the response to GCV by K2-5F induced by endogenous p53. Saos-2/p53-negative (FIG. 9A) and Saos-2/p53-positive (FIG. 9B) cells were co-transfected with plasmid pRL-2MDR-TKp-TK without (black bars) or with (gray bars) co-transfection of pFR-2p21-K2-5F. White bars represent cells transfected with empty vectors. All cells were also transfected with a β-galactosidase-expressing plasmid. After twenty-four hours, 600 cells were re-plated in 10-cm plates, and after another twenty-four hours, GCV was administered in varying concentrations. After ten days, surviving blue colonies larger than 50 cells were counted. Survival was expressed as a percentage of colonies formed at 0 GCV. […] The x-axis indicates the concentration of GCV in micromoles. The y-axis indicates the percentage of cell survival compared with cells not treated with GCV.
# (§2) Cells were transfected with the plasmids indicated, along with a β-galactosidase-expressing plasmid to mark the transfected cells. […] After 10 days, surviving blue (β-galactosidase-positive) colonies larger than 50 cells were counted. Survival was expressed as a percentage of colonies formed at 0 GCV.
# (§3) The pharmacological effect of K2-5F induced by endogenous p53 in stably transfected Saos-2 cells was investigated. […] The cells were then treated with GCV, and cell viability was evaluated with the use of a colony-formation assay. […]
# HEK 293 cells = assay: GCV sensitivity assay (luciferase) in transfected HEK 293 cells; format: cell-based, human; details: HEK 293 cells with TK, K2-5F and p53 vectors vs TK vector only or TK plus K2-5F vector
# Description: FIG. 6 is a graphical representation of regulation of the response to GCV by p53-induced K2-5F. Cells (HEK 293) were co-transfected with the following plasmids: pRL-2MDR-TKp-TK and pFR-2p21-K2-5F (Δ); pRL-2MDR-TKp-TK, pFR-2p21-K2-5F, and pCMV-P53-Myc (∇); or pRL-2MDR-TKp-TK and pcK2-5F (◯). The total DNA amount was adjusted by pcDNA3.1A and/or PRL-TK. A ratio of 1:20:1 between pRL-2MDR-TKp-TK, pFR-2p21-K2-5F, and pCMV-P53-Myc was used. (□) represents cells transfected with both control vectors. After twenty-four hours, cells in each well were replated uniformly into six-well plates, and after another twenty four hours, GCV was administered in varying concentrations. Luciferase activities were measured after four days of treatment with GCV. Results are expressed as a percentage of the luciferase activities at 0 GCV.
# (§4) Cells were seeded in twelve-well plates and transfected as described above. […] After four days of treatment, cells were lysed, and luciferase activities or β-galactosidase activities were measured according to the manufacturer's protocol (Promega Corp., Madison, Wis., United States of America). Cell viability was estimated by luciferase activity or β-galactosidase activity, with results expressed as a percentage of the activity in the absence of GCV. […]
# Saos-2/p53- cells = assay: Colony-formation assay with GCV in Saos-2/p53-negative cells; format: cell-based, human
# Description: as §1, §2, §3
# HEK 293T cells = assay: GCV sensitivity assay (luciferase or β-galactosidase activity as cell viability) in transfected HEK 293T cells; format: cell-based; details: Homo sapiens, 96 h, four days of GCV
# Description: FIG. 4 is a graphical representation of regulation of the response to GCV by constitutively expressed K2-5F. Cells (HEK 293T) were co-transfected with equal amounts of the following plasmids: pRL-2MDR-TKp-TK and pcDNA3.1A (Δ), pRL-2MDR-TKp-TK and pcK2-5F (◯), or pcDNA3.1A and PRL-TK (□). All cells were also co-transfected with a luciferase-expressing plasmid (FIG. 4A) or a β-galactosidase-expressing plasmid (FIG. 4B) as a marker. After twenty-four hours, cells in each well were re-plated evenly into six-well plates, and in another twenty four hours, GCV was administered in varying concentrations. Luciferase (FIG. 4A) or β-galactosidase (FIG. 4B) activities were measured after four days of treatment by GCV. Results are expressed as a percentage of the enzymatic activities at 0 GCV for each set of plasmids.
# as §4
structure (smiles),measurement,setting,value
"Nc1nc(O)c2ncn(COC(CO)CO)c2n1 [GCV, ganciclovir]",effect of K2-5F-expressing plasmid on the dose-survival curve for GCV,Saos-2/p53+ cells,substantial protective effect
same,right shift of the dose-response profile,HEK 293 cells,approximately 1 log
same,effect of K2-5F-expressing plasmid on the dose-survival curve for GCV,"Saos-2/p53- cells; Saos2/p53-negative cells co-transfected with pRL-2MDR-TKp-TK, colonies after 10 days",no effect
same,concentration of GCV required to attain toxicity,Saos-2/p53- cells; Saos-2 cells compared with HEK 293 cells,higher concentration
same,IC50,HEK 293T cells; HEK 293T cells transfected with both pRL-2MDR-TKp-TK and pcK2-5F,~10 µM
same,IC50,HEK 293T cells; HEK 293T cells transfected with pRL-2MDR-TKp-TK alone,~0.2 µM
